According to patent US10933063B2 (priority 2017, dated 2021):

molecular target: T1, BTK (Homo sapiens (Human), UniProt Q06187); experiment: not given; settings: read-out: BTK Inhibition
T1 sequence (Q06187 whole entry, looked up, species assumed): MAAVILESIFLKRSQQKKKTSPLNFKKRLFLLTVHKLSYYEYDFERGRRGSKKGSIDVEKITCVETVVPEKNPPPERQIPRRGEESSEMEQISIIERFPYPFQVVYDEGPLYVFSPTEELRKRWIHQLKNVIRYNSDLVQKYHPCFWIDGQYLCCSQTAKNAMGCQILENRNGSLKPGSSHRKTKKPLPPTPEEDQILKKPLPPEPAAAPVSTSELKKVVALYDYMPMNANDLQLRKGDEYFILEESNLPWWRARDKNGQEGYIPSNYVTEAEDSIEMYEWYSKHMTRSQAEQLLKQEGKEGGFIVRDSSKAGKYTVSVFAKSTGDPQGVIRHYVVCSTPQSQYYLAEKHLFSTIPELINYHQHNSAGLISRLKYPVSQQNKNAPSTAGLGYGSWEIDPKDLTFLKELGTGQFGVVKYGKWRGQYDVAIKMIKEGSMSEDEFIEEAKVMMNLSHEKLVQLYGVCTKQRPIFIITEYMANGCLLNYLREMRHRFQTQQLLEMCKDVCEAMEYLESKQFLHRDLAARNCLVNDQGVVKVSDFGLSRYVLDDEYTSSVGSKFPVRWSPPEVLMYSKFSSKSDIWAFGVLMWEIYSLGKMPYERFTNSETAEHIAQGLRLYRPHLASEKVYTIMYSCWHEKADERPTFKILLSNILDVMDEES

Q: Which IC50 does the source give for `COc1cccc(Oc2ccc(-c3nc([C@@H]4CCN(C(=O)/C=C/CN(C)C5CC5)C4)n4ccnc(C)c34)cc2)c1F` [Example 105, (R,E)-4-(cyclopropyl(methyl)amino)-1-(3-(1-(4-(2-fluoro-3-methoxyphenoxy)phenyl)-8-methylimidazo[1,5-a]pyrazin-3-yl)pyrrolidin-1-yl)but-2-en-1-one] here?
A: < 10 nM

Q: For `CN(C)C(=O)N1CCCC[C@H]1c1nc(-c2ccc(C(=O)Nc3cc(C(F)(F)F)ccn3)cc2)c2c(C(F)(F)F)nccn12` [Example 216, (S)-N,N-dimethyl-2-(8-(trifluoromethyl)-1-(4-((4-(trifluoromethyl)pyridin-2-yl)carbamoyl)phenyl)imidazo[1,5-a]pyrazin-3-yl)piperidine-1-carboxamide], which IC50 is on record?
A: > 10000 nM

Q: How did the IC50 turn out when `C=CC(=O)N1CCC[C@H]1c1nc(-c2ccc(Oc3cccc(OC)c3F)cc2)c2c(C)nccn12` [Example 61, (S)-1-(2-(1-(4-(2-fluoro-3-methoxyphenoxy)phenyl)-8-methylimidazo[1,5-a]pyrazin-3-yl)pyrrolidin-1-yl)prop-2-en-1-one] was run?
A: < 10 nM

Q: For `C=CC(=O)N1CC[C@@H](c2nc(-c3ccc(C(=O)Nc4ccccn4)cc3)c3c(C)ncc(OCC)n23)C1` [Example 206, (R)-4-(3-(1-acryloylpyrrolidin-3-yl)-5-ethoxy-8-methylimidazo[1,5-a]pyrazin-1-yl)-N-(pyridin-2-yl)benzamide], which IC50 is on record?
A: < 10 nM

Q: `CC#CC(=O)N1CC[C@@H](c2nc(-c3ccc(Oc4cccc(OC)c4F)cc3)c3cncc(OCCCC)n23)C1` [Example 97, (R)-1-(3-(5-butoxy-1-(4-(2-fluoro-3-methoxyphenoxy)phenyl)imidazo[1,5-a]pyrazin-3-yl)pyrrolidin-1-yl)but-2-yn-1-one] was tested. Which IC50 did it give?
A: < 10 nM

Q: Which IC50 does the source give for `CN(C)C(=O)N1CCCC[C@H]1c1nc(-c2ccc(C(=O)Nc3ccccn3)cc2)c2c(C(F)(F)F)nccn12` [Example 215, (S)-N,N-dimethyl-2-(1-(4-(pyridin-2-ylcarbamoyl)phenyl)-8-(trifluoromethyl)imidazo [1,5-a]pyrazin-3-yl) piperidine-1-carboxamide] here?
A: > 10000 nM

Q: How did the IC50 turn out when `CC#CC(=O)N1CCCC[C@H]1c1nc(-c2ccc(C(=O)Nc3ccccn3)cc2)c2c(C(F)(F)F)nccn12` [Example 200, (S)-4-(3-(1-(but-2-ynoyl)piperidin-2-yl)-8-(trifluoromethyl)imidazo [1,5-a]pyrazin-1-yl)-N-(pyridin-2-yl)benzamide] was run?
A: > 10000 nM

Q: For `C=CC(=O)N1CC[C@@H](c2nc(-c3ccc(C(=O)Nc4ccccn4)cc3)c3cncc(OCC)n23)C1` [Example 194, (R)-4-(3-(1-acryloylpyrrolidin-3-yl)-5-ethoxyimidazo [1,5-a]pyrazin-1-yl)-N-(pyridin-2-yl)benzamide], which IC50 is on record?
A: < 10 nM

Q: With `CC#CC(=O)N1CCC[C@H]1c1nc(-c2ccc(Oc3cccc(OC)c3F)cc2)c2c(C(N)=O)nccn12` [Example 38, (S)-3-(1-(but-2-ynoyl)pyrrolidin-2-yl)-1-(4-(2-fluoro-3-methoxyphenoxy)phenyl)imidazo[1,5-a]pyrazine-8-carboxamide] as the molecule, how does the IC50 read?
A: > 10000 nM

Q: Which IC50 does the source give for `C=CC(=O)N1CC[C@@H](c2nc(-c3ccc(Oc4cccc(OC)c4F)cc3)c3c(CC)nccn23)C1` [Example 106, (R)-1-(3-(8-ethyl-1-(4-(2-fluoro-3-methoxyphenoxy)phenyl)imidazo[1,5-a]pyrazin-3-yl)pyrrolidin-1-yl)prop-2-en-1-one] here?
A: < 10 nM

Q: For `C=CC(=O)N1CCC[C@H]1c1nc(-c2ccc(Oc3cccc(OC)c3F)cc2)c2c(C)ncc(C)n12` [Example 64, (S)-1-(2-(1-(4-(2-fluoro-3-methoxyphenoxy)phenyl)-5,8-dimethylimidazo[1,5-a]pyrazin-3-yl)pyrrolidin-1-yl)prop-2-en-1-one], which IC50 is on record?
A: < 10 nM

Q: With `CC#CC(=O)N1CC[C@@H](c2nc(-c3ccc(Oc4cccc(OC)c4F)cc3)c3cncc(OCCC)n23)C1` [Example 96, (R)-1-(3-(1-(4-(2-fluoro-3-methoxyphenoxy)phenyl)-5-propoxyimidazo[1,5-a]pyrazin-3-yl)pyrrolidin-1-yl)but-2-yn-1-one] as the molecule, how does the IC50 read?
A: < 10 nM

Q: Which IC50 does the source give for `CC#CC(=O)N1CC[C@@H](c2nc(-c3ccc(Oc4cccc(OC)c4F)cc3)c3c(C)nccn23)C1` [Example 92, (R)-1-(3-(1-(4-(2-fluoro-3-methoxyphenoxy)phenyl)-8-methylimidazo[1,5-a]pyrazin-3-yl)pyrrolidin-1-yl)but-2-yn-1-one] here?
A: < 10 nM

Q: `C=CC(=O)N1CC[C@@H](c2nc(-c3ccc(Oc4cccc(OC)c4F)cc3)c3cncc(OCCOC)n23)C1` [Example 104, (R)-1-(3-(1-(4-(2-fluoro-3-methoxyphenoxy)phenyl)-5-(2-methoxyethoxy)imidazo[1,5-a]pyrazin-3-yl)pyrrolidin-1-yl)prop-2-en-1-one] was tested. Which IC50 did it give?
A: < 10 nM

Q: Which IC50 does the source give for `C=CC(=O)N1CCCC[C@H]1c1nc(-c2ccc(C(=O)Nc3ccccn3)cc2)c2c(C)nccn12` [Example 170, (S)-4-(3-(1-acryloylpiperidin-2-yl)-8-methylimidazo [1,5-a]pyrazin-1-yl)-N-(pyridin-2-yl)benzamide] here?
A: < 10 nM

Q: With `CC#CC(=O)N1CCCC[C@H]1c1nc(-c2ccc(Oc3cccc(OC)c3F)cc2)c2c(C(F)(F)F)nccn12` [Example 122, (S)-1-(2-(1-(4-(2-fluoro-3-methoxyphenoxy)phenyl)-8-(trifluoromethyl)imidazo[1,5-a]pyrazin-3-yl)piperidin-1-yl)but-2-yn-1-one] as the molecule, how does the IC50 read?
A: > 10000 nM

Q: With `CC#CC(=O)N1CC[C@@H](c2nc(-c3ccc(Oc4cccc(OC)c4F)cc3)c3c(C(C)C)nccn23)C1` [Example 112, (R)-1-(3-(1-(4-(2-fluoro-3-methoxyphenoxy)phenyl)-8-isopropylimidazo[1,5-a]pyrazin-3-yl)pyrrolidin-1-yl)but-2-yn-1-one] as the molecule, how does the IC50 read?
A: > 10000 nM

Q: Which IC50 does the source give for `CC#CC(=O)N1CC[C@@H](c2nc(-c3ccc(Oc4cccc(OC)c4F)cc3)c3cncc(OC)n23)C1` [Example 86, (R)-1-(3-(1-(4-(2-fluoro-3-methoxyphenoxy)phenyl)-5-methoxyimidazo[1,5-a]pyrazin-3-yl)pyrrolidin-1-yl)but-2-yn-1-one] here?
A: < 10 nM

Q: How did the IC50 turn out when `C=CC(=O)N1CC[C@@H](c2nc(-c3ccc(Oc4cccc(OC)c4F)cc3)c3cncc(OC)n23)C1` [Example 85, (R)-1-(3-(1-(4-(2-fluoro-3-methoxyphenoxy)phenyl)-5-methoxyimidazo[1,5-a]pyrazin-3-yl)pyrrolidin-1-yl)prop-2-en-1-one] was run?
A: < 10 nM

Q: `C=CC(=O)N1CCC[C@H]1c1nc(-c2ccc(Oc3cccc(Cl)c3)cc2)c2cnccn12` [Example 28, (S)-1-(2-(1-(4-(3-chlorophenoxy)phenyl)imidazo[1,5-a]pyrazin-3-yl)pyrrolidin-1-yl)prop-2-en-1-one] was tested. Which IC50 did it give?
A: < 10 nM

Q: `C=CC(=O)N1CC[C@@H](c2nc(-c3ccc(Oc4cccc(OC)c4F)cc3)c3cncc(OCCN(C)C)n23)C1` [Example 89, (R)-1-(3-(5-(2-(dimethylamino)ethoxy)-1-(4-(2-fluoro-3-methoxyphenoxy)phenyl)imidazo[1,5-a]pyrazin-3-yl)pyrrolidin-1-yl)prop-2-en-1-one] was tested. Which IC50 did it give?
A: < 10 nM

molecular target: T1, BTK; experiment: biochemical; settings: not given

Q: How did the IC50 turn out when `CC#CC(=O)N1CC[C@@H](c2nc(-c3ccc(Oc4cccc(OC)c4F)cc3)c3c(CC)nccn23)C1` [Example 107, (R)-1-(3-(8-ethyl-1-(4-(2-fluoro-3-methoxyphenoxy)phenyl)imidazo[1,5-a]pyrazin-3-yl)pyrrolidin-1-yl)but-2-yn-1-one] was run?
A: 10 to 100 nM
